Legend:
[1] = molecular target: T1, human PDE9A2 (Homo sapiens, UniProt O76083); assay: PDE9A2 enzymatic activity assay (scintillation proximity assay); format: biochemical; details: for IC50: specific IC50 value is within the given range
T1 construct: made in house; host or cells: Sf9 insect cells (infected; crude lysate used as enzyme source)
Experimental: The PDE9A2 enzymatic activity assay was run as scintillation proximity assay (SPA), in general according to the protocol of the manufacturer (Amersham Biosciences, product number: TRKQ 7100).
As enzyme source, lysate (PBS with 1% Triton X-100 supplemented with protease inhibitors, cell debris removed by centrifugation at 13.000 rpm for 30 min) of SF 9 cell expressing the human PDE9A2 was used. The total protein amount included in the assay varied upon infection and production efficacy of the SF9 cells and lay in the range of 0.1-100 ng.
In general, the assay conditions were as follows: • total assay volume: 40 microliter • protein amount: 0.1-50 ng • substrate concentration (cGMP): 20 nanomolar; ˜1 mCi/1 • incubation time: 60 min at room temperature • final DMSO concentration: 0.2-1
The assays were run in 384-well format. The test reagents as well as the enzyme and the substrate were diluted in assay buffer. The assay buffer contained 50 mM Tris, 8.3 mM MgCl2, 1.7 mM EGTA, 0.1% BSA, 0.05% Tween 20; the pH of assay buffer was adjusted to 7.5. The reaction was stopped by applying a PDE9 specific inhibitor (e.g. compounds according to WO04099210 or WO04099211) in excess.
The activity of the positive control (minus the negative control=background) is set to 100% and activity in the presence of test compound is expressed relative to these 100%. Within this setting, an inhibition above 100% might be possible due to the nature of the variation of the positive control within the assay. In the following inhibition of PDE 9A2 is presented for a concentration at 10 μM, if not indicated otherwise.
IC50 can be calculated with GraphPadPrism or other suited software setting the positive control as 100 and the negative control as 0. For calculation of IC50 dilutions of the test compounds (substrates) are to be selected and tested following the aforementioned protocol.

[2] = molecular target: T2, Murine PDE9A (Mus musculus, UniProt O70628); details: concentrations below 200 micromolar; cited from earlier work
T2 sequence (O70628 1-534): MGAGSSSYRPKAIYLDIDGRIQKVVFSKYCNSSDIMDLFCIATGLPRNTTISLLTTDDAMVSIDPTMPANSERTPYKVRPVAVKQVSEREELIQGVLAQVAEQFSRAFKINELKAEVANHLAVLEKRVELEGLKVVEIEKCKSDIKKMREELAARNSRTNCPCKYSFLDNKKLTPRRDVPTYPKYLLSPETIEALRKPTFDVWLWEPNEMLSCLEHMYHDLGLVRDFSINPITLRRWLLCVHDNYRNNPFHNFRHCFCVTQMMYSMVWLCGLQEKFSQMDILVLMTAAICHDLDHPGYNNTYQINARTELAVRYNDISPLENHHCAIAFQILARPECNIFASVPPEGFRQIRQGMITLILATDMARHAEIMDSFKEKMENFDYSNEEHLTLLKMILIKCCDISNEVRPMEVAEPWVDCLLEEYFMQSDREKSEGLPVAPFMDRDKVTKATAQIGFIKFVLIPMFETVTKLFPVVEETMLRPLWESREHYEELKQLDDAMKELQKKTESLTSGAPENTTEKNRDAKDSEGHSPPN

[3] = molecular target: human PDE9A (Homo sapiens, UniProt O76083); details: concentrations of up to 100 micromolar (μM); cited from earlier work
human PDE9A, sequence (O76083 whole entry): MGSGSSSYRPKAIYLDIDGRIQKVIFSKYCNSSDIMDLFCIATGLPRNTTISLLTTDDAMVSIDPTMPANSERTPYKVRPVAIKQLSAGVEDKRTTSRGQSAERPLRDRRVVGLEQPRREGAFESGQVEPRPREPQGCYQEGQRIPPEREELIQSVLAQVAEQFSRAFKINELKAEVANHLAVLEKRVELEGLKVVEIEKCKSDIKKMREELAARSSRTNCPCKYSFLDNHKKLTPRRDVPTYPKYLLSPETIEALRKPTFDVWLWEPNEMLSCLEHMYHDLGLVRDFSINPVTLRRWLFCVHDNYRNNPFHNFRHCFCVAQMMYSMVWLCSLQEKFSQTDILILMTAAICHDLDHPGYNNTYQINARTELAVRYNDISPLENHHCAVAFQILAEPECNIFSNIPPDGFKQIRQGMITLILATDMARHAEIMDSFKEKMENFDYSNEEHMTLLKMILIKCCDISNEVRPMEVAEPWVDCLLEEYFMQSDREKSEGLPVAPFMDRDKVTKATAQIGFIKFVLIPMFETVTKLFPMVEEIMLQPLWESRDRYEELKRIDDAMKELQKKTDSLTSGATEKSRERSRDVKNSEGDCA

[4] = read-out: % Inhibition of PDE 9A2

T1 sequence (O76083 1-533 isoform O76083-2): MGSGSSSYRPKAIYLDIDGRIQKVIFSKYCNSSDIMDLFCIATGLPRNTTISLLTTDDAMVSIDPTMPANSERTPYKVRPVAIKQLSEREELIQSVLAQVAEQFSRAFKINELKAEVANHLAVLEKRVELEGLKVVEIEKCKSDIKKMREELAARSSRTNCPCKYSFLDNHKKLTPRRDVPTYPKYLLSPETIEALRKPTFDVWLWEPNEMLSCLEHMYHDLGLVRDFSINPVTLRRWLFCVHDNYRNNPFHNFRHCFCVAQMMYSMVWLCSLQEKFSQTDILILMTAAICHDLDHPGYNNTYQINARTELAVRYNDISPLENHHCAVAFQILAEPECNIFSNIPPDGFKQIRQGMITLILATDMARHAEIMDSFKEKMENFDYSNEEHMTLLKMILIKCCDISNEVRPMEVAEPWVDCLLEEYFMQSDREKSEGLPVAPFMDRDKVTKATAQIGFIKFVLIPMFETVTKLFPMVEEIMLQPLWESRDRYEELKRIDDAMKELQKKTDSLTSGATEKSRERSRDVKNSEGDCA

Structure (SMILES) | inhibition at 10 µM [1, 4] [%] | IC50 [1] [nM] | inhibition at 3.3 µM ([1]; at 3.3 μM, read-out: % Inhibition of PDE 9A2) [%] | inhibition of murine PDE9A [2] | inhibition on the isolated enzyme [3]
O=c1[nH]c(Cc2ccccc2-c2ccccn2)nc2c1cnn2C1CCC(F)(F)CC1 [Example 91] | 95 | 1 to 100 |  |  | 
O=c1[nH]c(Cc2ncccc2-n2cccn2)nc2c1cnn2C1CCC(F)(F)CC1 [Example 96] | 93 | 1 to 100 |  |  | 
Cc1nc(-c2ccccc2Cc2nc3c(cnn3C3CCC(F)(F)CC3)c(=O)[nH]2)no1 [Example 97] | 100 | 1 to 100 |  |  | 
O=c1[nH]c(Cc2ccccc2-c2ccnnc2)nc2c1cnn2C1CCC(F)(F)CC1 [Example 98] | 100 | 1 to 100 |  |  | 
COc1cccnc1Cc1nc2c(cnn2C2CCC(F)(F)CC2)c(=O)[nH]1 [Example 100] | 95 | 101 to 1500 |  |  | 
O=c1[nH]c(Cc2ccccc2C2CC2)nc2c1cnn2C1CCC(F)(F)CC1 [Example 103] |  | 1 to 100 | 96 |  | 
O=c1[nH]c(Cc2ccccc2-n2cnnc2)nc2c1cnn2C1CCC(F)(F)CC1 [Example 108] | 99 | 1 to 100 |  |  | 
Cc1cccnc1Cc1nc2c(cnn2C2CCC(F)CC2)c(=O)[nH]1 (centres unmarked) [Example 110] | 95 |  |  |  | 
O=c1[nH]c(CC2CCCC2)nc2c1cnn2C1CCC(F)CC1 (centres unmarked) [Example 113] | 98 | 1 to 100 |  |  | 
CC(C)Cn1c(=O)n(C)c(=O)c2[nH]cnc21 [IBMX] |  |  |  | not inhibited | no inhibition
CC(=O)Nc1ccc(-c2c[nH]c(=O)cn2)cc1 [SKF94120] |  |  |  |  | no inhibition
OCCN(CCO)c1nc(N2CCCCC2)c2nc(N(CCO)CCO)nc(N3CCCCC3)c2n1 [dipyridamole] |  |  |  |  | no inhibition
COc1ccc(C2CNC(=O)C2)cc1OC1CCCC1 (centres unmarked) [rolipram] |  |  |  |  | no inhibition
CCOC(=O)C1=C[C@]2(CC)CCCN3CCc4c(n1c1ccccc41)[C@@H]32 [vinpocetine] |  |  |  |  | no inhibition

The next lines start with results.

inhibition at 10 µM [1, 4] [%] | IC50 [1] [nM] | inhibition at 3.3 µM ([1]; at 3.3 μM, read-out: % Inhibition of PDE 9A2) [%] | Structure (SMILES) | inhibition of murine PDE9A [2] | inhibition on the isolated enzyme [3]
98 | 1 to 100 |  | O=c1[nH]c(Cc2cc(F)ccc2-n2cccn2)nc2c1cnn2C1CCC(F)(F)CC1 [Example 89] |  | 
97 | 1 to 100 |  | O=c1[nH]c(Cc2cc(F)ccc2-c2ccccn2)nc2c1cnn2C1CCC(F)(F)CC1 [Example 90] |  | 
94 | 1 to 100 |  | Cc1ccc(-c2ccccc2Cc2nc3c(cnn3C3CCC(F)(F)CC3)c(=O)[nH]2)o1 [Example 93] |  | 
98 | 1 to 100 |  | Cn1cc(-c2cccnc2Cc2nc3c(cnn3C3CCC(F)(F)CC3)c(=O)[nH]2)cn1 [Example 94] |  | 
111 | 1 to 100 |  | Cc1ncn(-c2ccccc2Cc2nc3c(cnn3C3CCC(F)(F)CC3)c(=O)[nH]2)n1 [Example 95-1] |  | 
97 | 1 to 100 |  | O=c1[nH]c(Cc2ccccc2-n2cccn2)nc2c1cnn2C1CCC(F)(F)CC1 [Example 95] |  | 
100 | 1 to 100 |  | Cc1nc(-c2ccccc2Cc2nc3c(cnn3C3CCC(F)(F)CC3)c(=O)[nH]2)n[nH]1 [Example 99] |  | 
97 | 1 to 100 |  | O=c1[nH]c(Cc2ccccc2-n2cccc2)nc2c1cnn2C1CCC(F)(F)CC1 [Example 104] |  | 
97 | 101 to 1500 |  | O=c1[nH]c(Cc2ncccc2C2CC2)nc2c1cnn2C1CCC(F)(F)CC1 [Example 105] |  | 
83 | 1 to 100 |  | Cc1ccn(-c2ccccc2Cc2nc3c(cnn3C3CCC(F)(F)CC3)c(=O)[nH]2)n1 [Example 106] |  | 
100 | 1 to 100 |  | Nc1ccccc1Cc1nc2c(cnn2C2CCC(F)(F)CC2)c(=O)[nH]1 [Example 107] |  | 
93 |  |  | O=c1[nH]c(Cc2ccccn2)nc2c1cnn2C1CCC(F)CC1 (centres unmarked) [Example 109] |  | 
74 | 1 to 100 |  | O=c1[nH]c(CC2CCC2)nc2c1cnn2C1CCC(F)CC1 (centres unmarked) [Example 111] |  | 
97 | 1 to 100 |  | CC(C)Cc1nc2c(cnn2C2CCC(F)CC2)c(=O)[nH]1 (centres unmarked) [Example 112] |  | 
